# Where no end group is shown, it is not given here.
# Tested on: freshly isolated dendritic cells (CD11c+ splenocytes)
# Assay: Dendritic cell (DC) assay: IL-12 release
# Assay type: cell-based, BALB/c mice
# Conditions: not given
# Description: In a preferred embodiment, dendritic cell (DC) assay is used to follow interleukin-12 (IL-12) release from freshly isolated dendritic cells as an index of DC activation (see section 13). […] Briefly, by way of example but not limitation, a DC assay can be carried out as follows: freshly isolated dendritic cells (CD11c^+ splenocytes, e.g., isolated from the spleens of BALB/c mice within ten hours of assaying the activity) are suspended at a density of 0.5×10^6 cells per mL in cytokine supplemented culture media (GM-CSF, 1.0 ng/ml; IL-4, 1.0 ng/ml; IFNg, 3 ng/ml; anti mouse CD40; 0.5 mg/ml). […] Mouse IL-12 release from the dendritic cells (CD11c^+ splenocytes) is then measured using ELISA.
# DCs were isolated from the spleens of male BALB/c mice 8-12 weeks of age (Harlan Bioproducts for Science, Indianapolis, Ind.), using the magnetic assisted cell separation (MACS) system purchased from Miltenyi Biotech. In summary: Spleens were aseptically removed from mice and placed into a petri dish containing 5 mL holding media (DMEM/F12 supplemented with 10% FCS and antibiotics). Each spleen was then injected with ˜0.5 mls collagenase D solution (1 mg/mL in 10 mM Hepes-NaOH, pH 7.4, 150 mM NaCl, 5 mM MgCl2, 1.8 mM CaCl2), placed into 5-10 mL collagenase D, cut into 5-6 pieces and incubated at 37° C. for 45-60 min. Collagenase-digested spleens were then processed with glass slides and passed through a 70 μm nylon mesh cell strainer. After the strainer was flushed with 40 mL culture media, cells were centrifuged (8 min @ 200×G), suspended in 1 mL PBS and subjected to red blood cell lysis by incubating the cell suspension for 5 min at room temperature in 10 mL lysis buffer (155 mM NH4Cl, 10 mM KHCO3, 0.1 mM EDTA), followed by dilution in PBS to 50 mL and centrifugation (8 min @ 200×g). The splenocytes were then suspended in 10 mL MACS buffer (PBS pH 7.2, supplemented with 2 mM EDTA and 0.5% BSA), passed through a 40 μm nylon mesh cell strainer which was flushed with 40 mL MACS buffer. A preliminary cell count was taken at this time, prior to centrifugation (8 min @ 200×G). The splenocytes were suspended at a density of 10^8 cells per 400 μL MACS buffer. Paramagnetic MicroBeads coated with anti-CD11c antibody were mixed with the splenocyte suspension (100 μL per 10^8 cells), incubated at +4° C. for 15 min, washed, suspended in 1.0 mL MACS buffer and passed through a MS+separation column placed within a strong magnetic field. CD11c^+ cells were retained in the column whereas CD11c^− cells were washed off the column as the flow-through cell fraction. CD11c^+ cells were then collected by removing the column out of the magnetic field and flushing the column twice with 1 mL of MACS buffer. CD11c^+ cells were washed once with culture media and suspended at a density of 0.5×10^6 cells per mL in cytokine supplemented culture media {DMEM/F12 supplemented with 10% FCS and gentamicin containing mouse GM-CSF (1 ng/mL), mouse IL-4 (1 ng/mL), mouse IFNγ (3 ng/mL) and anti mouse CD40 (0.5 mg/mL)}.
# Mouse IL12 release from CD11c^+ splenocytes was measured using ELISA. Briefly, CD11c+ cell culture supernatants were sampled following an overnight incubation (usually 15-18 hrs). Media samples (100 μL) were added to ELISA plates coated with anti mouse IL12 (p70) capture antibody (R&D #MAB419; 250 ng in 100 μL per well) and incubated either at 37° C. or room temperature for 2 hrs. The ELISA plates were washed extensively with wash buffer after which 100 μL per well of detection antibody/detection reagent (biotinylated anti-mouse IL12; R&D #BAF419 at 50 ng/mL and streptavidin-HRP) was added. The ELISA plates were again incubated for 2 hours, washed and exposed to […] substrate solution (Pierce #34021) for 20 min. The substrate reaction was stopped by adding 100 μL/well 2M H2SO4. ELISA plates were read at 450 nm (corrected at 540 nm) and mIL12(p70) levels were calculated using an intra-ELISA standard curve (range: 2000-31.25 pg/mL).
row,Molecule,Inhibition of DC-activity induced by crude ARP preparations
1,[Ca+2].[Cl-].[Cl-] [CaCl2],did not
2,[Cl-].[Cl-].[Zn+2] [ZnCl2],inhibition of activity in mM-μM concentration range
3,[Cl-].[Cl-].[Mg+2] [MgCl2],did not
4,[Cl][Cu][Cl] [CuCl2],inhibition of activity in mM-μM concentration range

# Same assay, conditions: tested for synergism and inhibition
row,Molecule,DC/mIL12 Release
1,TNFα,−
2,TGFβ,−
3,IFNγ: Interferon gamma,−
4,"IL-18: interleukin (protein, UniProt P70380 36-192, looked up) Interleukin-18: NFGRLHCTTAVIRNINDQVLFVDKRQPVFEDMTDIDQSASEPQTRLIIYMYKDSEVRGLAVTLSVKDSKMSTLSCKNKIISFEEMDPPENIDDIQSDLIFFQKRVPGHNKMEFESSLYEGHFLACQKEDDAFKLILKKKDENGDKSVMFTLTNLHQS",−

# Tested on: Mouse sarcoma 180 cells
# Assay: not given
# Assay type: cell-based
# Conditions: not given
# Protocol: In one embodiment, a NK cell assay is used to assess ARP-induced cytotoxic activity of NK-like cells. Briefly, by way of example but not limitation, a NK cell assay can be carried out as follows: large granular lymphocytes (LGLs) are co-cultured with tumor cells at various ratios (effector to target ratio) for four days at 37° C., 5% CO2. […] The culture is terminated at the end of day 4 and vitally stained using a MTT cell viability quantification assay (see Mossman, T. J. Immunol. Methods 1983, 65:55; and Sigma Chemical MTT (M5655) product application note). Culture media is aspirated and the remaining cells are washed and replaced with DMEM/F12 plus FCS, containing MTT. The cells are further incubated for 4-5 hours at 37° C. Absorbance is measured with the aid of a plate reader. Decreased absorbance indicated a decrease in the number of viable cells per well (i.e., cytotoxicity). Absorbance is measured again after the MTT is solubilized by replacement of the medium with 2-propanol containing HCl, which gives a uniform color throughout the well. NK-inducing activity is calculated relative to negative (PBS/BSA) and positive (internal standard) controls.
# Spleens (10-15 per experiment) were aseptically removed from male Balb/C mice 6-10 weeks of age. Splenocytes were “squeezed” out of spleens using 2 sterile glass microscope slides. Cells were collected in approximately 10 ml of DMEM/F12 containing 10% fetal calf serum (FCS) and gentamicin (50 μg/ml). Single cell suspensions were generated by passing collected cells through a 70 μm nylon mesh screen. After washing the cell pellet once with PBS (centrifuged at 675×g for 5 min), red blood cells were lysed by brief hypotonic shock (i.e. exposure to sterile distilled, deionized water, followed immediately with appropriate volumes of 10×PBS to return to isotonicity). Remaining cells were centrifuged and resuspended in DMEM/F12+10% FCS and transferred to 75 cm^2 flasks each containing 25 mls DMEM/F12+10% FCS (cells from 5 spleens per flask). The cells were incubated for 60 min. at 37° C. to selectively remove readily adherent cells (mainly fibroblasts and macrophages). After the incubation, the flasks were gently shaken and the non-adherent cells were removed, pelleted by centrifugation, and resuspended in DMEM/F12 (no supplements) (1.0 mL/10^8 cells). A 1.0 mL volume of these cell suspensions were carefully layered onto a 70%/60%/40% (2 mL/4 mL/4 mL) Percoll™ gradients in 15 ml centrifuge tubes and centrifuged for 30 min at 675×G. The cells which sediment at the 40/60 interface represent primarily large granular lymphocytes (LGLs), enriched with NK cells. These cells were carefully removed with a pasteur pipet, centrifuged, washed once with PBS and resuspended in approximately 5 mL DMEM/F12 supplemented with gentamicin (50 μg/mL) and 10% fetal calf serum. Cell counts and appropriate dilutions of LGL cells were made with these cells, as described below. For convenience this LGL cell preparation is interchangeably referred to as NK cells.
# Mouse sarcoma 180 cells were seeded into 96 well plates at a density of 5×10^3 cells per well in 100 μl DMEM/F12, supplemented with 10% FCS and gentamicin (50 μg/mL). […] NK cells were added in 100 μL of supplemented DMEM/F12 at designated densities: 0 NK cells/well; 5×10^4 NK cells/well (1:10 target/effector ratio); 1.25×10^5 NK cells/well (1:25 target/effector ratio); 2.5×10^5 NK cells/well (1:50 target/effector ratio); and, 5×10^5 NK cells/well (1:100 target/effector ratio). (Note: routinely, only the 1:50 and 1:100 ratios were used for screening purposes. IL2 was added as a media supplement with final concentration of 125 U/mL.). Co-cultures were incubated for 4 days at 37° C., 5% CO2, and terminated and vitally stained using a MTT cell viability quantification assay (see Mossman, T. J. Immunol. Methods 65:55 (1983); and Sigma Chemical MTT (M5655) product application note). […]
Molecule,NK-inducing activity,"maximal response, cytotoxicity",Effect on NK-CMC (footnotes of Table 16)
IFNγ: Interferon gamma,slight increase in NK-CMC,^6Weakly activates NK cells in the presence of IL-2 (maximal response < 50% cytotoxicity).,
"IL-12: Interleukin 12 (protein, UniProt P43431 23-215; P43432 23-335, looked up) Interleukin-12 subunit alpha: RVIPVSGPARCLSQSRNLLKTTDDMVKTAREKLKHYSCTAEDIDHEDITRDQTSTLKTCLPLELHKNESCLATRETSSTTRGSCLPPQKTSLMMTLCLGSIYEDLKMYQTEFQAINAALQNHNHQQIILDKGMLVAIDELMQSLNHNGETLRQKPPVGEADPYRVKMKLCILLHAFSTRVVTINRVMGYLSSA Interleukin-12 subunit beta: MWELEKDVYVVEVDWTPDAPGETVNLTCDTPEEDDITWTSDQRHGVIGSGKTLTITVKEFLDAGQYTCHKGGETLSHSHLLLHKKENGIWSTEILKNFKNKTFLKCEAPNYSGRFTCSWLVQRNMDLKFNIKSSSSSPDSRAVTCGMASLSAEKVTLDQRDYEKYSVSCQEDVTCPTAEETLPIELALEARQQNKYENYSTSFFIRDIIKPDPPKNLQMKPLKNSQVEVSWEYPDSWSTPHSYFSLKFFVRIQRKKEKMKETEEGCNQKGAFLVEKTSTEVQCKGGNVCVQAQDRYYNSSCSKWACVPCRVRS",,,synergistically increases NK-CMC at low concentrations of IL-2

# Same assay, conditions: same conditions as BEX
row,Molecule,Enhancement of NK-CMC compared to BEX
1,TNFα,relatively weak enhancers
2,IFNγ: Interferon gamma,relatively weak enhancers

# Same assay, conditions: wide range of concentrations, in the presence and absence of IL-2 (125 U/ml)
row,Molecule,NK-CMC Activity
1,TGFβ,−
2,JE/MCP-1: chemokine,−
3,"Cecropin A: defensin / anti-microbial peptide (KWKLFKKIEKVGQNIRDGIIKAGPAVAVVGQATQIAK; UniProt P01507 27-63, looked up)",−
4,Magainin II,−
5,Cecropin P1,−
6,IFNα,−
7,Magainin I,−
8,"Cecropin B: defensin / anti-microbial peptide (KWKVFKKIEKMGRNIRNGIVKAGPAIAVLGEAKAL; ends and bridges not checked; UniProt P01508 27-61, looked up)",−
9,TGFα: growth factor,−
10,IL-15: interleukin,−
11,"IL-4: interleukin (protein, UniProt P07750 21-140, looked up) Interleukin-4: HIHGCDKNHLREIIGILNEVTGEGTPCTEMDVPNVLTATKNTTESELVCRASKVLRIFYLKHGKTPCLKKNSSVLMELQRLFRAFRCLDSSISCTMNESKSTSLKDFLESLKSIMQMDYS",−
12,"IL-7: interleukin (protein, UniProt P10168 26-154, looked up) Interleukin-7: ECHIKDKEGKAYESVLMISIDELDKMTGTDSNCPNNEPNFFRKHVCDDTKEAAFLNRAARKLKQFLKMNISEEFNVHLLTVSQGTQTLVNCTSKEEKNVKEQKKNDACFLKRLLREIKTCWNKILKGSI",−
13,"IL-11: interleukin (protein, UniProt P20809 22-199, looked up) Interleukin-11: PGPPPGPPRVSPDPRAELDSTVLLTRSLLADTRQLAAQLRDKFPADGDHNLDSLPTLAMSAGALGALQLPGVLTRLRADLLSYLRHVQWLRRAGGSSLKTLEPELGTLQARLDRLLRRLQLLMSRLALPQPPPDPPAPPLAPPSSAWGGIRAAHAILGGLHLTLDWAVRGLLLLKTRL",−
14,"MIP-1α: chemokine (protein, UniProt P10855 24-92, looked up) C-C motif chemokine 3: APYGADTPTACCFSYSRKIPRQFIVDYFETSSLCSQPGVIFLTKRNRQICADSKETWVQEYITDLELNA",−
15,"KC: chemokine (protein, UniProt P12850 25-96, looked up) Growth-regulated alpha protein: APIANELRCQCLQTMAGIHLKNIQSLKVLPSGPHCTQTEVIATLKNGREACLDPEAPLVQKIVQKMLKGVPK",−
